The record followed here is article PMC5384001 (Scientific Reports, 2017).

This test addresses T1, GluD2-Lc(D542Y)-(HS2)GluN1 (Rattus norvegicus, UniProt Q63226, A654T/A766F/D542Y/D767R/N763E/R768S/T764L/V761T/V765F).
T1 construct: the function of full-length receptors as well, we introduced them into the GluD2 lurcher mutant (GluD2-Lc); expressed in transfected cells; host or cells: Xenopus laevis oocytes injected with cRNA
T1 sequence (Q63226 24-1007 D542Y/A654T/V761T/N763E/T764L/V765F/A766F/D767R/R768S): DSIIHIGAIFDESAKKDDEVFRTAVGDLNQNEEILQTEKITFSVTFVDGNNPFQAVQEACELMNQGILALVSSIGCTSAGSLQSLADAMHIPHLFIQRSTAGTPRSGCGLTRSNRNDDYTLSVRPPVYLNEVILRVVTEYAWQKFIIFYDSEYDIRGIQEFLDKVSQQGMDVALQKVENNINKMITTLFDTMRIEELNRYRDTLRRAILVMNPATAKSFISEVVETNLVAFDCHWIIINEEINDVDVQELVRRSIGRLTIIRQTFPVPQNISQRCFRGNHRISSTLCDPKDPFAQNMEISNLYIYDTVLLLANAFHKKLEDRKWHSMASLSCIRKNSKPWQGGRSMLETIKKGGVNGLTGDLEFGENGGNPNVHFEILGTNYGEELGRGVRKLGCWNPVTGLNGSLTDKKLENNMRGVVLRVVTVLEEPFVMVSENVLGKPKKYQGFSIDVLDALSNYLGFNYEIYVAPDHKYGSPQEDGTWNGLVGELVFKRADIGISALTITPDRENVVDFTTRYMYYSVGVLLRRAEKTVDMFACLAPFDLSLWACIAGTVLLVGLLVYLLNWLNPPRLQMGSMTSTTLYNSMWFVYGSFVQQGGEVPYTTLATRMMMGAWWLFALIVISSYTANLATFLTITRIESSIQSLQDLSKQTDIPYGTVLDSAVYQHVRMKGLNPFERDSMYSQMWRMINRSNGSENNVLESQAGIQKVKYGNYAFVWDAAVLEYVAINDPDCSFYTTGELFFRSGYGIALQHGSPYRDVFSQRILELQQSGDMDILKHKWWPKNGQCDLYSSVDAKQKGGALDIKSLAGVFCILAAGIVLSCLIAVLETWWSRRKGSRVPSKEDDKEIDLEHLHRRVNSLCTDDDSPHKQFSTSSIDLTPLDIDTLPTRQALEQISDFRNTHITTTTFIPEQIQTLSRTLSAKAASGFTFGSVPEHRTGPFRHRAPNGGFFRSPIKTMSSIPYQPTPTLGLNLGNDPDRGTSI
As to the kind of experiment: Two-electrode voltage clamp in Xenopus oocytes, inhibition of spontaneous currents. Type of test: cell-based. An excerpt: All cDNAs for expression in Xenopus oocytes were cloned into the vector pSGEM[30]. Point mutants of GluD2-Lc were constructed by overlap extension PCR with mutagenic oligonucleotide primers. The GluD2-Lc-(H)GluN1 chimera was constructed by transferring the S1- and S2-encoding sequences from GluD2-LBD-(H)GluN1 to GluD2-Lc via overlap extension PCR using tail primers. The S1 and S2 sequences were transferred separately, yielding GluD2-Lc-(HS1)GluN1 and GluD2-Lc-(HS2)GluN1 constructs. GluD2-Lc-(H)GluN1 was then produced from these by another overlap extension PCR. Complementary RNA (cRNA) for injection into oocytes was synthesised from 1 μg of linearised template DNA with the mMESSAGE mMACHINE in vitro transcription kit (Ambion, Austin, TX, USA).
Oocytes were obtained by surgically removing parts of the ovaries from Xenopus laevis (Nasco, Fort Atkinson, WI, USA) anaesthetised with 1.5 g/L 3-aminobenzoic acid ethylester (Sigma, Taufkirchen, Germany). The ovary clippings were digested with 784 U/mL (4 mg/mL) collagenase type I (Worthington, Lakewood, NJ, USA) in Ca^2+-free Barth’s solution (88 mM NaCl, 1.1 mM KCl, 2.4 mM NaHCO3, 0.8 mM MgSO4, 15 mM HEPES-NaOH, pH 7.6) with gentle agitation for 1.5–2 h at 20 °C to remove the follicular cell layer. After stopping the collagenase digestion by washing with Barth’s solution (88 mM NaCl, 1.1 mM KCl, 2.4 mM NaHCO3, 0.3 mM Ca(NO3)2, 0.4 mM CaCl2, 0.8 mM MgSO4, 15 mM HEPES-NaOH, pH 7.6), defolliculated oocytes of stages V and VI were selected and maintained at 16 °C in Barth’s solution supplemented with 100 μg/mL gentamicin, 40 μg/mL streptomycin, and 63 μg/mL penicillin. Oocytes were injected with 11 ng cRNA (10 ng of each cRNA for co-expression of GluN1 and GluN2A) using a nanoliter injector (WPI, Sarasota, FL, USA). Four days after cRNA injection, current responses were recorded under voltage clamp at –70 mV with a Turbo Tec-10CD amplifier (npi electronic, Tamm, Germany) controlled by Patchmaster software (HEKA, Lambrecht, Germany). Currents were filtered with a 20 Hz low-pass filter and then digitised with a sampling rate of 50 Hz. Recording electrodes were pulled from borosilicate glass (Hilgenberg, Malsfeld, Germany) with an L/M-3P-A vertical pipette puller (List-Medical), filled with 3 M KCl, and had resistances of 0.5–5 MΩ (voltage electrode) or 0.5–1.5 MΩ (current electrode). Recordings were performed in a 50 μL chamber under constant superfusion with extracellular solution at a flow rate of 3–5 mL/min. […] Finally, Ba-NFR and then NMDGR were applied again to check for reversibility.
A general note: Two-electrode voltage clamp is typically applied to oocytes expressing channels or transporters.

For the compound `N[C@H](CO)C(=O)O` [D-serine], where the note is “fraction of spontaneous current inhibited by D-serine”, the “D-serine efficacy Mean ± SEM” value was “–3.4 ± 0.5%”. Also, for the setting “inhibition of spontaneous currents”, the “sensitivity to D-serine” value is recorded as “insensitive”.
